Assay results published in patent US12358999B2, “Protein recognizing drug moiety of antibody-drug conjugate” (DAIICHI SANKYO COMPANY, LIMITED, priority 2018, dated 2025).

Key:
[1] = tested on: mouse antibody 1A3; experiment: Specificity of mouse antibody 1A3: immunostaining after mixing with compound (Example 9 ii); format: binding; settings: CDH6-ADC (I) treated NOG mouse tumor; blending ratio 1A3: compound (2): SN-38 0.1:0.04:0.03
Protocol: To a highly immunodeficient mouse (NOG mouse), a human tumor taken from a patient with clear cell renal cell carcinoma was subcutaneously transplanted. After CDH6-ADC (I) was administered, the tumor tissue was taken to prepare paraffin-embedded specimens. Then, stainability of mouse antibody 1A3 was examined. The tumor tissue was taken from an NOG mouse to which CDH6-ADC (I) was not administered and used as a negative control. Deparaffinization and antigen activation were carried out using Autostainer Link pretreatment system (PT Link, manufactured by DAKO) and an antigen retrieval solution (Target Retrieval Solution Low pH, manufactured by DAKO) at 97° C. for 40 minutes. The following staining operation was carried out using an automatic staining device (Dako Autostainer Link 48: manufactured by DAKO) at room temperature. After washing once with EnVision FLEX WASH BUFFER (manufactured by DAKO), Peroxidase Block 3% H2O2 (manufactured by DAKO) was added; incubation was carried out for 5 minutes; and washing was carried out once with EnVision FLEX WASH BUFFER. Protein Block serum free (manufactured by DAKO) was added; incubation was carried out for 30 minutes; and liquid was removed by air blow. Mouse antibody 1A3 was diluted with REAL Antibody Diluent (manufactured by DAKO) to fall in the range of 0.03 μg/mL to 0.3 μg/mL and reaction was made for 60 minutes. […]

[2] = tested on: mouse antibody 1A3; experiment: Specificity of mouse antibody 1A3: immunostaining after mixing with compound (Example 5 ii); format: binding; settings: Example 5, written in present tense; blending ratio 0.1:0.04:0.03
Protocol: To a highly immunodeficient mouse (NOG mouse), a human-derived tumor is subcutaneously transplanted. After the antibody-drug conjugate according to the present invention is administered, the tumor tissue is taken to prepare paraffin-embedded specimens. Then, stainability of a mouse antibody 1A3 is examined. The tumor tissue is taken from a NOG mouse to which the antibody-drug conjugate according to the present invention is not administered and used as a negative control. Deparaffinization and antigen activation are carried out using Autostainer Link pretreatment system (PT Link, manufactured by DAKO) and an antigen retrieval solution (Target Retrieval Solution Low pH, manufactured by DAKO). The following staining operation is carried out using an automatic staining device (Dako Autostainer Link 48: Manufactured by DAKO). After washing with EnVision FLEX WASH BUFFER (manufactured by DAKO), Peroxidase Block 3% H2O2 (manufactured by DAKO) is add; incubation is carried out; and washing is carried out with EnVision FLEX WASH BUFFER. Protein Block serum free (manufactured by DAKO) is added; incubation s carried out; and liquid is removed by air blow. Mouse antibody 1A3 is diluted with REAL Antibody Diluent (manufactured by DAKO) and reacted. […]

[3] = tested on: mouse antibody 1A3; experiment: Competitive inhibition with HER2-ADC (I), chemical structure recognized by mouse antibody 1A3 (Gyrolab); format: binding; settings: compound 1 and 100 μg/mL dilution solutions; response at HER2-ADC (I) 250 ng/mL
Text: The chemical structure to be recognized by mouse antibody 1A3 was checked by competitive inhibition with HER2-ADC (I) using Gyrolab xP workstation (GYROS PROTEIN Technologies). As the compound for use in competitive inhibition, compound (1), compound (2), compound (7), compound (8), compound (9), compound (10), compound (11), Topotecan and Rubitecan were selected.
As the capture reagent, mouse antibody 1A3 labeled with biotin by a labeling kit (ChromaLink Biotin Protein LABELING Kit, Solulink) was used. The concentration thereof was controlled to be 700 nM with 0.1% PS20-containing PBS. The compounds for use in competitive inhibition, compound (1), compound (2), compound (7), compound (8), compound (9), compound (10), compound (11), Topotecan and Rubitecan were separately dissolved in DMSO. The solutions each was diluted with 10% or 20% DMSO in Rexxip HN (GYROS PROTEIN Technologies) to prepare 0, 1 and 100 μg/mL dilution solutions. To each of them, the 700 nM mouse antibody 1A3 solution was added in an equal amount. The mixture was stirred and allowed to react at room temperature in a dark place for one hour or more. The concentration of HER2-ADC (I) was controlled with Rexxip HN to be 0, 0.244, 0.977, 3.91, 15.6, 62.5, 250 and 1000 ng/mL. As the detection reagent, Mouse Anti-(Anti-HER2 Ab) idiotype Ab (13C1) (IBL) was labeled by DyLight650 (registered trademark) labeling kit and put in use. The concentration thereof was controlled with Rexxip F (GYROS PROTEIN Technologies) to be 10 nM. The above solution was set at Gyrolab xP workstation and measurement was carried out by use of Gyrolab Bioaffy 200 at 200-3W-002-A (PMT5). The regression analysis was carried out by use of Gyrolab Evaluator 3.4.0.24 in 4-parametric logistic model (weight: Response). The calibration curve of HER2-ADC (I) was prepared per concentration of the competitive inhibition compound. The inhibition rate (%) was calculated by comparing the response at an HER2-ADC (I) concentration of 250 ng/mL to that of the case where no compound was added (concentration 0 ng/mL).

[4] = target: T1, topoisomerase I (Homo sapiens, UniProt P11387); settings: cited from earlier work
T1 sequence (P11387 1-765): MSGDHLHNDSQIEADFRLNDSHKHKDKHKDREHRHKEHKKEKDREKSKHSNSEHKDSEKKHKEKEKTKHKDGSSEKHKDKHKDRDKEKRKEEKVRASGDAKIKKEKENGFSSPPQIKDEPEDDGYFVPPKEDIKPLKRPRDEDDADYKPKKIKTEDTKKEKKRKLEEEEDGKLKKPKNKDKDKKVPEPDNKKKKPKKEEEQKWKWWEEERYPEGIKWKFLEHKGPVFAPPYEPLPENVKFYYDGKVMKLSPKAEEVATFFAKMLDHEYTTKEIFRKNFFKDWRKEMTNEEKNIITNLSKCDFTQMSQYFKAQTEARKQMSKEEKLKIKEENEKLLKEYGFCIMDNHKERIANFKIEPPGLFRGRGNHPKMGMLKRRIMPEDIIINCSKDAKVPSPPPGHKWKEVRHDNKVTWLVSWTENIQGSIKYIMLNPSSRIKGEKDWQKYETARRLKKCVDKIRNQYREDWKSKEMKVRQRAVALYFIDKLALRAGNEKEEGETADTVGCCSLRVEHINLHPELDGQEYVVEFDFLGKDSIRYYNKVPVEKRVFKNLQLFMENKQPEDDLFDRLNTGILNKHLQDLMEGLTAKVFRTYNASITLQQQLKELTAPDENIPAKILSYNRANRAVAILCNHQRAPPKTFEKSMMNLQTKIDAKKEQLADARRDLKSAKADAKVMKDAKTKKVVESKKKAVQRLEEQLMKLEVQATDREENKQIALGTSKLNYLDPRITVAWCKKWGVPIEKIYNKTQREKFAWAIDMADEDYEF

**Q.** With `CCc1c2c(nc3ccc(O)cc13)-c1cc3c(c(=O)n1C2)COC(=O)[C@]3(O)CC` [SN-38, reference compound] as the molecule, how does the “staining ability of mouse antibody 1A3 after mixing with the compound” value [1] read?
**A.** did not disappear

**Q.** What about the “stainability of mouse antibody 1A3 after mixing with the compound” value [2] of the same molecule?
**A.** does not disappear

**Q.** Which “competitive inhibition of recognition of mouse antibody 1A3 to HER2-ADC (I) (inhibition rate, FIG. 41)” value [3] does the source give for `CC[C@@]1(O)C(=O)OCc2c1cc1n(c2=O)Cc2c-1nc1cc(F)c(C)c3c1c2[C@@H](NC(=O)CO)CC3` [compound (2)] here?
**A.** strong competitive inhibition

**Q.** What about the “staining ability of mouse antibody 1A3 after mixing with the compound” value [1] of the same molecule?
**A.** disappeared

**Q.** And the “stainability of mouse antibody 1A3 after mixing with the compound” value [2]?
**A.** disappears

**Q.** And the “topoisomerase I inhibitory activity” value [4]?
**A.** topoisomerase I inhibitory effect
